Measurements reported in ChEMBL document CHEMBL4261615, “Design, synthesis, biological evaluation and cellular imaging of imidazo[4,5-b]pyridine derivatives as potent and selective TAM inhibitors” (Bioorg Med Chem, 2018).
Activity calls are given as the source filed them. The calls are words filed in the database; no cut-off is given here.

What was measured:
[1] = biological target: T1, Tyrosine-protein kinase Mer (Homo sapiens, UniProt Q12866); assay: Inhibition of recombinant GST-tagged human Mer (578 to 872 residues) cytoplasmic domain expressed in Baculovirus system using poly (Glu-Ala-Tyr) peptide as substrate after 5 mins in presence of ADP by fluorescence analysis
T1 sequence (Q12866 whole entry): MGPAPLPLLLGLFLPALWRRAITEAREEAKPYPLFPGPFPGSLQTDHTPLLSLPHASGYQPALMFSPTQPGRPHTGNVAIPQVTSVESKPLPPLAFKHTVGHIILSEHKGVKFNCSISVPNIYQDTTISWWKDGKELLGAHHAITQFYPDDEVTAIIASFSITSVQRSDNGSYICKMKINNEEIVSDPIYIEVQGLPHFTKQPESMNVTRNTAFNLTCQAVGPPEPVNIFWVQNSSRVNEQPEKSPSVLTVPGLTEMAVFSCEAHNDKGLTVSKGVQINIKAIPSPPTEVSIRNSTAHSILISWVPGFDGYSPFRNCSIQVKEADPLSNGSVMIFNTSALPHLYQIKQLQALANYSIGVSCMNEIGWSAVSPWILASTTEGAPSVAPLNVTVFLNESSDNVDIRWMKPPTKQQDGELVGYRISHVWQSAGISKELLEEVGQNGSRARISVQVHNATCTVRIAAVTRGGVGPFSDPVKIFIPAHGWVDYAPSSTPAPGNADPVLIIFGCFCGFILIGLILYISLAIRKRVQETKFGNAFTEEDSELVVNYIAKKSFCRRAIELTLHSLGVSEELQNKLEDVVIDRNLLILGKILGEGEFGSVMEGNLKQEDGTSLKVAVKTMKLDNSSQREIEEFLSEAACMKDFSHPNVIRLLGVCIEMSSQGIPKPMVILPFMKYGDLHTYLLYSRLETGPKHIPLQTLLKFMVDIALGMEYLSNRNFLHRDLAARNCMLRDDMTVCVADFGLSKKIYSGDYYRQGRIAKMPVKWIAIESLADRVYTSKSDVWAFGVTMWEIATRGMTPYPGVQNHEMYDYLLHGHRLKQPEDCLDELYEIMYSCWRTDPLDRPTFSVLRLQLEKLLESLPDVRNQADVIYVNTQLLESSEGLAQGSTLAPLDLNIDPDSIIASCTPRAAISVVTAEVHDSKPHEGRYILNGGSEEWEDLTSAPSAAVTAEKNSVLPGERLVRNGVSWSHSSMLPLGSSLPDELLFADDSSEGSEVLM

[2] = biological target: Tyrosine-protein kinase receptor UFO (Homo sapiens) (UniProt P30530); assay: Inhibition of recombinant His-tagged human Axl (473 to end residues) cytoplasmic domain expressed in insect system using poly (Glu-Ala-Tyr) peptide as substrate after 1.5 hrs by ELISA
Sequence of Tyrosine-protein kinase receptor UFO (Homo sapiens) (P30530 whole entry, the tested form may be a part): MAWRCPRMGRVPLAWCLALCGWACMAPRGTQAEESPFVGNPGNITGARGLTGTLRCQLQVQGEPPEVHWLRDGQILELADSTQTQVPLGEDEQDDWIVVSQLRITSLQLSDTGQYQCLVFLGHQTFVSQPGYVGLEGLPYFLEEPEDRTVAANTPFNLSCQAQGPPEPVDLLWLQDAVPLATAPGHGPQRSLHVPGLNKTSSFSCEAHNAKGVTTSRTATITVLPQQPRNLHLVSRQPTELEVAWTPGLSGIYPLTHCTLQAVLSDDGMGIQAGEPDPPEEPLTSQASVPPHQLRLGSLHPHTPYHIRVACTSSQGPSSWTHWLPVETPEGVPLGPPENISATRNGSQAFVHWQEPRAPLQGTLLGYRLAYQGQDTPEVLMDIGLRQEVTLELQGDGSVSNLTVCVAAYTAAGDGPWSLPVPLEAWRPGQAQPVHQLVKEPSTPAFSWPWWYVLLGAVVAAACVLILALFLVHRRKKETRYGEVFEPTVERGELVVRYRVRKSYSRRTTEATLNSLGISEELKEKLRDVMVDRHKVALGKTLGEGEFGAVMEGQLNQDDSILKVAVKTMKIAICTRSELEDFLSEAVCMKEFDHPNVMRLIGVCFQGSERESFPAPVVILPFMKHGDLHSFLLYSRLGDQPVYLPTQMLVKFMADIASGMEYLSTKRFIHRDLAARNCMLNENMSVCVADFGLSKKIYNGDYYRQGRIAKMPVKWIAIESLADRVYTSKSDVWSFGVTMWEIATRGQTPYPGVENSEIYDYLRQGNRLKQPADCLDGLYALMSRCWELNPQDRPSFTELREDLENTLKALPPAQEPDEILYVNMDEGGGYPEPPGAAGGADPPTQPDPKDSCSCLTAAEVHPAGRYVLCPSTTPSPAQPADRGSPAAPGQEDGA

[3] = biological target: Serine/threonine-protein kinase B-raf (Homo sapiens) (UniProt P15056); assay: Binding affinity to wild-type human partial length BRAF (S429 to E741 residues) expressed in mammalian expression system assessed as fraction of unbound kinase to substrate at 1 uM after 1 hr by KinomeScan assay
Sequence of Serine/threonine-protein kinase B-raf (Homo sapiens) (P15056 whole entry, the tested form may be a part): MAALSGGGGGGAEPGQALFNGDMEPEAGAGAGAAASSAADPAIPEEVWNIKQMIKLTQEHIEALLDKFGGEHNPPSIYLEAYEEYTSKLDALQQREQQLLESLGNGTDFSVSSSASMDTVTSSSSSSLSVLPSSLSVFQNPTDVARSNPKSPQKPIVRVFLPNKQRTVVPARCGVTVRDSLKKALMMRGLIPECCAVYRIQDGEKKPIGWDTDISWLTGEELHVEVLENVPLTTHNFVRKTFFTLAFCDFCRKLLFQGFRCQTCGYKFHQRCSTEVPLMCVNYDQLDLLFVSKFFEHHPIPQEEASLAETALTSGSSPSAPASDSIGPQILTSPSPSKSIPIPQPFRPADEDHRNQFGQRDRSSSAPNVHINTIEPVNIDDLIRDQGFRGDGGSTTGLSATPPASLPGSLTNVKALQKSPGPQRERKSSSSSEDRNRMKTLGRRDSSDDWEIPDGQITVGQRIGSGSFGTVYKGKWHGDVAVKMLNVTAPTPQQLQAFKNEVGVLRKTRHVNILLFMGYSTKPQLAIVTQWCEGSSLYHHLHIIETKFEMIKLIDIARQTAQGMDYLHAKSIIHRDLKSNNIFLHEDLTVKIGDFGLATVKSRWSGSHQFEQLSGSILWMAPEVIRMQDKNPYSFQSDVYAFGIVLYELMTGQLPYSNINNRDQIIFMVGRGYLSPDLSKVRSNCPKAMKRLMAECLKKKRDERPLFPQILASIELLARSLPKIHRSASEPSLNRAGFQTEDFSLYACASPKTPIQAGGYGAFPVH

[4] = biological target: Epidermal growth factor receptor (Homo sapiens) (UniProt P00533); assay: Binding affinity to partial length wild type human EGFR (R669 to V1011 residues) expressed in bacterial expression system assessed as fraction of unbound kinase to substrate at 1 uM after 1 hr by KinomeScan assay
Sequence of Epidermal growth factor receptor (Homo sapiens) (P00533 whole entry, the tested form may be a part): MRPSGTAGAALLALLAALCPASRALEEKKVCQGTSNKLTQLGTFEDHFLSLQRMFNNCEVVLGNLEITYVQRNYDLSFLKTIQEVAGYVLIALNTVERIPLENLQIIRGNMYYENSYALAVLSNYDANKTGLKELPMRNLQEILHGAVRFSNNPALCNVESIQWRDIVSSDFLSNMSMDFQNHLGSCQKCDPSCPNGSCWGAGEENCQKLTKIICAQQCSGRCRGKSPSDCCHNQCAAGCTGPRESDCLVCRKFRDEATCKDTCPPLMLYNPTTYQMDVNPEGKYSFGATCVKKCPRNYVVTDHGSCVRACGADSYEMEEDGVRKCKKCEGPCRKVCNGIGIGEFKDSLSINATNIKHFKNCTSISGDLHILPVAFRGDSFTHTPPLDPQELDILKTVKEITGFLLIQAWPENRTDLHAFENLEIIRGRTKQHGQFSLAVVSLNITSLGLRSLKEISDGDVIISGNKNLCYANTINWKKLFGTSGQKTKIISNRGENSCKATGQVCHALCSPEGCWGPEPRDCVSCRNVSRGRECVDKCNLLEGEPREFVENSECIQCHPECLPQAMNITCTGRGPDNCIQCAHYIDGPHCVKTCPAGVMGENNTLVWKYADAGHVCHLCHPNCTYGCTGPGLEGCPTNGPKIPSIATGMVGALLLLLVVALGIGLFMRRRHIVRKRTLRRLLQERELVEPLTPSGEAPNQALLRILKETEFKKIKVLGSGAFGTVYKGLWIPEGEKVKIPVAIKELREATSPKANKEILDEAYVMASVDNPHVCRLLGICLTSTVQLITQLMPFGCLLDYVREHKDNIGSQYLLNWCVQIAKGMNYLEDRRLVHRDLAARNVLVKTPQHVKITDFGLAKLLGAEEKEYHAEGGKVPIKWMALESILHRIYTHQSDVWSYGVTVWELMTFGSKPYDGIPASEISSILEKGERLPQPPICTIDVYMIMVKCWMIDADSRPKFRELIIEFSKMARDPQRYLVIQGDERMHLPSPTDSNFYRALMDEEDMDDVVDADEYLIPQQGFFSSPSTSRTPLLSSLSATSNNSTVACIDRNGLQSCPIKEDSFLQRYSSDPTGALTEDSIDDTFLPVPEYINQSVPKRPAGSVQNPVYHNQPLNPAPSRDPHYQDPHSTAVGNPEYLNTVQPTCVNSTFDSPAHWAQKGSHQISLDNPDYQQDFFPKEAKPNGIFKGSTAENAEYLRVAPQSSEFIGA

[5] = biological target: Epidermal growth factor receptor (Homo sapiens) (UniProt P00533); assay: Binding affinity to partial length wild type human EGFR (R669 to V1011 residues) expressed in bacterial expression system assessed as fraction of unbound kinase to substrate at 10 uM after 1 hr by KinomeScan assay
[6] = biological target: Fibroblast growth factor receptor 1 (Homo sapiens) (UniProt P11362); assay: Binding affinity to wild-type human partial length FGFR1 (P357 to V669 residues) expressed in bacterial expression system assessed as fraction of unbound kinase to substrate at 10 uM after 1 hr by KinomeScan assay
Sequence of Fibroblast growth factor receptor 1 (Homo sapiens) (P11362 22-822 limits assumed): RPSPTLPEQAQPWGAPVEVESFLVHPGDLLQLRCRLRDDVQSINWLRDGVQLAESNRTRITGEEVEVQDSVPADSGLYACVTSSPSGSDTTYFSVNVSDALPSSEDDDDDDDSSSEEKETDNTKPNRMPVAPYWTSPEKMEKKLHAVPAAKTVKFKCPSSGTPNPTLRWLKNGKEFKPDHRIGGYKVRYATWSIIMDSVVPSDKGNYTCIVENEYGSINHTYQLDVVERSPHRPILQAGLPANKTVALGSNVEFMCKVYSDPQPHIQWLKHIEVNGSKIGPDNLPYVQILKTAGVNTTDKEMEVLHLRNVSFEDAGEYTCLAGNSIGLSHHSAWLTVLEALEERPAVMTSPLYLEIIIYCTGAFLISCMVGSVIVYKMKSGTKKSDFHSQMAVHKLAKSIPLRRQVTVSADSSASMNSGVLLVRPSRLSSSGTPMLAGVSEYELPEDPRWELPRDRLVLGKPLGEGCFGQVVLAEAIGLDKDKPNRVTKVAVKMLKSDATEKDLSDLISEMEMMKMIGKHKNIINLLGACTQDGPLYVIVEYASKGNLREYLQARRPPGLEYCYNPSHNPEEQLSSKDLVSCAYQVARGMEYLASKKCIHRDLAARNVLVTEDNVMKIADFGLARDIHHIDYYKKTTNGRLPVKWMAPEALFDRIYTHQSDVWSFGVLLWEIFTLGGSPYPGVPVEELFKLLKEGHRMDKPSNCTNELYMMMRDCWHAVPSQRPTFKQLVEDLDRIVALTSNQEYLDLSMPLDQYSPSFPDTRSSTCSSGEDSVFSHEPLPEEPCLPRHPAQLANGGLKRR

[7] = biological target: T2, Tyrosine-protein kinase receptor TYRO3 (Homo sapiens) (UniProt Q06418); assay: Binding affinity to wild-type human partial length TYRO3 (S497 to T814 residues) expressed in bacterial expression system assessed as fraction of unbound kinase to substrate at 1 uM after 1 hr by KinomeScan assay
T2 sequence (whole entry): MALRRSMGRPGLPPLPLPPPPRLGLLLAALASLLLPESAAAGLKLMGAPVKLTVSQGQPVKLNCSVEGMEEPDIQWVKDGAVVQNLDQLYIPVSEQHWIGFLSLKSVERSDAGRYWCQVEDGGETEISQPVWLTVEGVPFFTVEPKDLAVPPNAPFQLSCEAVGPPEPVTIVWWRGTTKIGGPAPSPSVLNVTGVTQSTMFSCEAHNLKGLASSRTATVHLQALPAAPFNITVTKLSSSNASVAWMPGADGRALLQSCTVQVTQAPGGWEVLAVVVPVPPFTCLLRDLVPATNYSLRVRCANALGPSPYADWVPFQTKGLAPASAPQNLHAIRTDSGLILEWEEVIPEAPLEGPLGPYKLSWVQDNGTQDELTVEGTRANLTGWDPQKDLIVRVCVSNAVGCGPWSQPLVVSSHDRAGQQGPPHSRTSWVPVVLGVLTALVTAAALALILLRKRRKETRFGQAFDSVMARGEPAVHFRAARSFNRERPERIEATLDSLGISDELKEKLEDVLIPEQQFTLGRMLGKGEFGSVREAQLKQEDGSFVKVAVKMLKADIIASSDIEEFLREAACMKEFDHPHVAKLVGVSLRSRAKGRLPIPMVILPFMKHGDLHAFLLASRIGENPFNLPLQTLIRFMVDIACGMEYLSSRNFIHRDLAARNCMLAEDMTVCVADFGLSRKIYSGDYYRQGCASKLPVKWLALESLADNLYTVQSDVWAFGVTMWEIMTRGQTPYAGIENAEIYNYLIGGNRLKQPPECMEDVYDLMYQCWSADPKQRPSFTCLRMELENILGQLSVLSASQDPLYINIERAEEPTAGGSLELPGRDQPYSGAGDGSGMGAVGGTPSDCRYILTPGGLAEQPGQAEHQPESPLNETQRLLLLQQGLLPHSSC

Row | Structure (SMILES) | IC50 [1] | inhibition [2] | Activity [3] | Activity [4] | Activity [5] | Activity [6] | Activity [7]
1 | Cc1cnc2[nH]cnc2c1Oc1ccc(NC(=O)c2cccn(-c3ccc(F)cc3)c2=O)cc1F | > 100000 nM | inactive | 2% | 0% | 0% | 15% | 0%
2 | O=C(Nc1ccc(Oc2ccnc3[nH]cnc23)c(F)c1)c1cccn(-c2ccc(F)cc2)c1=O | 90 nM | Active | 12% | 0% | 0% | 6% | 81%
3 | CC(C)c1nc2c(Oc3ccc(NC(=O)c4cccn(-c5ccc(F)cc5)c4=O)cc3F)ccnc2[nH]1 | 40 nM | inactive | 8% | 0% | 8% | 1% | 39%
4 | O=C(Nc1ccc(Oc2c(Br)cnc3[nH]cnc23)c(F)c1)c1cccn(-c2ccc(F)cc2)c1=O | 9 nM | inactive | 0% | 0% | 1% | 11% | 11%
